Patent publication US10336762B2 (priority 2017, dated 2019)

Experiments:
IRAK4 enzyme = IRAK4 enzyme (Homo sapiens (Human), UniProt Q9NWZ3); assay: biochemical; format: biochemical; conditions: IRAK4 enzyme, TR-FRET, 500 μM ATP
TNFα = assay: cells; format: cell-based, human; conditions: Homo sapiens, Monocyte, LPS-stimulated human monocytes, TNFα content; read-out: EC50 TNF
Method: IRAK4 Monocyte TNFα Cell Based Assay Procedure:
The cell suspension was then plated at a density of 5,000 cells/well onto black 384 well Greiner clear bottom plates. Plates were pre-spotted with test compounds and serially diluted in DMSO where 200 nL/well were delivered using the Echo 550 acoustic liquid dispenser (Labcyte®) for a final DMSO concentration of 0.5%. Plated cells were treated with compound for 1 hour at 37° C. Cells were then stimulated with 50 pg/ml of LPS (Sigma) excluding outside columns of plate used for unstimulated cell control wells. Cells were incubated for an additional 4 hours at 37° C. Cells were then spun out of the media and 5 μl of sample were taken and analyzed for total TNFα content using the TR-FRET Human TNFα detection system (CisBio). This system utilizes two labeled antibodies (cryptate and XL665) that bind to two different epitopes of the TNFα molecule and produce FRET signal proportional to the concentration of TNFα in the sample. Detection antibodies are mixed 50:50 and 5 μL were dispensed into each well. Plates were covered with clear seals and incubated at room temp overnight. […] Percent of control was calculated as follows: % Control=100×(RatioSample−Ratio0% stimulation)/(Ratio100% Stimulation−Ratio0% Stimulation) where unstimulated cells (0% stimulation) were the negative control and stimulated cells (100% stimulation) were used as the positive control.

Sequence of IRAK4 enzyme (Q9NWZ3 whole entry): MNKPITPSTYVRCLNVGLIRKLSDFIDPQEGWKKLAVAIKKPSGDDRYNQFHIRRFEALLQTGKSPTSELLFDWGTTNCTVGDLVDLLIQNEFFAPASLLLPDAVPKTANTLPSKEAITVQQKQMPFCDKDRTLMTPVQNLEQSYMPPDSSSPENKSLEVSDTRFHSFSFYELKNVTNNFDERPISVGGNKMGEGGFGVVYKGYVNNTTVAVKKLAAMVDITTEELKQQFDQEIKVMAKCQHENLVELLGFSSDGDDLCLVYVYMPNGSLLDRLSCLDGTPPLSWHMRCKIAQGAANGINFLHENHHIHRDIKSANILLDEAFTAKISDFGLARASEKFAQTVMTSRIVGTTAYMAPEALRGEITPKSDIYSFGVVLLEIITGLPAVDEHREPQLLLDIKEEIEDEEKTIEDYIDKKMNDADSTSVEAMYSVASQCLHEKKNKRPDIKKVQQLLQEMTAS

Structure (SMILES): CN(C)C(=O)N1CCC(Nc2cc(-c3ccc4cc(C#N)cnn34)ncc2C(=O)NC[C@@H](F)C(C)(C)O)CC1 [Example 243, (R)-6-(3-cyanopyrrolo[1,2-b]pyridazin-7-yl)-4-((1-(dimethylcarbamoyl)piperidin-4-yl)amino)-N-(2-fluoro-3-hydroxy-3-methylbutyl)nicotinamide]
- IC50 (IRAK4 enzyme): 2 nM
- EC50 (TNFα): 218 nM

Structure (SMILES): CN(C)S(=O)(=O)N1CCC(Nc2cc(-c3ccc4cc(C#N)cnn34)ncc2C(=O)NC[C@@H](F)C(C)(C)O)CC1 [Example 244, (R)-6-(3-cyanopyrrolo[1,2-b]pyridazin-7-yl)-4-((1-(N,N-dimethylsulfamoyl)piperidin-4-yl)amino)-N-(2-fluoro-3-hydroxy-3-methylbutyl) nicotinamide]
- IC50 (IRAK4 enzyme): 1 nM
- EC50 (TNFα): 102 nM

Structure (SMILES): CN1CC2C[C@@H](Nc3cc(-c4ccc5cc(C#N)cnn45)ncc3C(=O)NC[C@@H](F)C(C)(C)O)C[C@@H]2C1 (stereo partly drawn) [Example 245, 6-(3-cyanopyrrolo[1,2-b]pyridazin-7-yl)-N-((R)-2-fluoro-3-hydroxy-3-methylbutyl)-4-(((3aR,5s,6aS)-2-methyloctahydrocyclopenta[c]pyrrol-5-yl)amino)nicotinamide]
- IC50 (IRAK4 enzyme): 2 nM
- EC50 (TNFα): 92 nM

Structure (SMILES): CC(=O)N1C[C@H]2C[C@@H](Nc3cc(-c4ccc5cc(C#N)cnn45)ncc3C(=O)NC[C@@H](F)C(C)(C)O)C[C@H]2C1 [Example 246, 4-(((3aR,5r,6aS)-2-acetyl-octahydrocyclopenta[c]pyrrol-5-yl)amino)-6-(3-cyanopyrrolo[1,2-b]pyridazin-7-yl)-N-((R)-2-fluoro-3-hydroxy-3-methylbutyl)nicotinamide]
- IC50 (IRAK4 enzyme): 17 nM
- EC50 (TNFα): 637 nM

Structure (SMILES): CC(C)(O)[C@H](F)CNC(=O)c1cnc(-c2ccc3cc(C#N)cnn23)cc1N[C@@H]1C[C@@H]2CN(S(C)(=O)=O)C[C@@H]2C1 [Example 247, 6-(3-cyanopyrrolo[1,2-b]pyridazin-7-yl)-N-((R)-2-fluoro-3-hydroxy-3-methylbutyl)-4-(((3aR,5r,6aS)-2-(methylsulfonyl)octahydro-cyclopenta[c]pyrrol-5-yl)amino)nicotinamide]
- IC50 (IRAK4 enzyme): 6 nM
- EC50 (TNFα): 262 nM

Structure (SMILES): CC(C)(O)[C@H](F)CNC(=O)c1cnc(-c2ccc3cc(C#N)cnn23)cc1N[C@H]1C[C@H]2CNC[C@H]2C1 [Example 248, 6-(3-cyanopyrrolo[1,2-b]pyridazin-7-yl)-N-((R)-2-fluoro-3-hydroxy-3-methyl-butyl)-4-(((3aR,5r,6aS)-octahydrocyclopenta[c]pyrrol-5-yl)amino) nicotinamide]
- IC50 (IRAK4 enzyme): 3 nM
- EC50 (TNFα): 545 nM

Structure (SMILES): CC(=O)N1C[C@H]2C[C@H](Nc3cc(-c4ccc5cc(C#N)cnn45)ncc3C(=O)NC[C@@H](F)C(C)(C)O)C[C@H]2C1 [Example 249, 4-(((3aR,5s,6aS)-2-acetyl-octahydrocyclopenta[c]pyrrol-5-yl)amino)-6-(3-cyanopyrrolo[1,2-b]pyridazin-7-yl)-N-((R)-2-fluoro-3-hydroxy-3-methylbutyl) nicotinamide]
- IC50 (IRAK4 enzyme): 2 nM
- EC50 (TNFα): 100 nM

Structure (SMILES): CC(C)(O)[C@H](F)CNC(=O)c1cnc(-c2ccc3cc(C#N)cnn23)cc1N[C@H]1C[C@@H]2CN(S(C)(=O)=O)C[C@@H]2C1 [Example 250, 6-(3-cyanopyrrolo[1,2-b]pyridazin-7-yl)-N-((R)-2-fluoro-3-hydroxy-3-methylbutyl)-4-(((3aR,5s,6aS)-2-(methylsulfonyl)octa-hydrocyclopenta[c]pyrrol-5-yl)amino) nicotinamide]
- IC50 (IRAK4 enzyme): 1 nM
- EC50 (TNFα): 37 nM

Structure (SMILES): CC(C)(O)[C@H](F)CNC(=O)c1cnc(-c2ccc3cc(C#N)cnn23)cc1N[C@@H]1C[C@H]2CNC[C@H]2C1 [Example 251, 6-(3-cyanopyrrolo[1,2-b]pyridazin-7-yl)-N-((R)-2-fluoro-3-hydroxy-3-methylbutyl)-4-(((3aR,5s,6aS)-octa-hydrocyclopenta[c]pyrrol-5-yl)amino) nicotinamide]
- IC50 (IRAK4 enzyme): 1 nM
- EC50 (TNFα): 117 nM

Structure (SMILES): CC(C)Nc1cc(-c2ccc3cc(C#N)cnn23)ncc1C(=O)NCCC(C)(C)N [Example 252, N-(3-amino-3-methyl-butyl)-6-(3-cyano-pyrrolo[1,2-b]pyridazin-7-yl)-4-(isopropylamino) nicotinamide]
- IC50 (IRAK4 enzyme): 2 nM
- EC50 (TNFα): 78 nM

Structure (SMILES): CC(=O)N1CCC[C@@H](Nc2cc(-c3ccc4cc(C#N)cnn34)ncc2C(=O)NC[C@@H](F)C(C)(C)O)C1 [Example 253, 4-(((R)-1-acetylpiperidin-3-yl)amino)-6-(3-cyano-pyrrolo[1,2-b]pyridazin-7-yl)-N-((R)-2-fluoro-3-hydroxy-3-methylbutyl)nicotinamide]
- IC50 (IRAK4 enzyme): 3 nM
- EC50 (TNFα): 510 nM

Structure (SMILES): CC(C)(O)[C@H](F)CNC(=O)c1cnc(-c2ccc3cc(C#N)cnn23)cc1N[C@@H]1CCCN(S(C)(=O)=O)C1 [Example 254, 6-(3-cyanopyrrolo[1,2-b]pyridazin-7-yl)-N-((R)-2-fluoro-3-hydroxy-3-methylbutyl)-4-(((R)-1-(methylsulfonyl)piperidin-3-yl)amino)nicotinamide]
- IC50 (IRAK4 enzyme): 17 nM
- EC50 (TNFα): 2020 nM

Structure (SMILES): CC(C)(O)[C@H](F)CNC(=O)c1cnc(-c2ccc3cc(C#N)cnn23)cc1N[C@@H]1CCCNC1 [Example 255, 6-(3-cyanopyrrolo[1,2-b]pyridazin-7-yl)-N-((R)-2-fluoro-3-hydroxy-3-methylbutyl)-4-(((R)-piperidin-3-yl)amino)nicotinamide]
- IC50 (IRAK4 enzyme): 14 nM
- EC50 (TNFα): 1270 nM

Structure (SMILES): CC(=O)N1CCC[C@H](Nc2cc(-c3ccc4cc(C#N)cnn34)ncc2C(=O)NC[C@@H](F)C(C)(C)O)C1 [Example 256, 4-(((S)-1-acetylpiperidin-3-yl)amino)-6-(3-cyano-pyrrolo[1,2-b]pyridazin-7-yl)-N-((R)-2-fluoro-3-hydroxy-3-methylbutyl)nicotinamide]
- IC50 (IRAK4 enzyme): 2 nM
- EC50 (TNFα): 389 nM

Structure (SMILES): CC(C)(O)[C@H](F)CNC(=O)c1cnc(-c2ccc3cc(C#N)cnn23)cc1N[C@H]1CCCN(S(C)(=O)=O)C1 [Example 257, 6-(3-cyanopyrrolo[1,2-b]pyridazin-7-yl)-N-((R)-2-fluoro-3-hydroxy-3-methylbutyl)-4-(((S)-1-(methylsulfonyl)piperidin-3-yl)amino)nicotinamide]
- IC50 (IRAK4 enzyme): 1 nM
- EC50 (TNFα): 129 nM

Structure (SMILES): CC(C)(O)[C@H](F)CNC(=O)c1cnc(-c2ccc3cc(C#N)cnn23)cc1N[C@H]1CCCNC1 [Example 258, 6-(3-cyanopyrrolo[1,2-b]pyridazin-7-yl)-N-((R)-2-fluoro-3-hydroxy-3-methylbutyl)-4-(((S)-piperidin-3-yl)amino)nicotinamide]
- IC50 (IRAK4 enzyme): 1 nM
- EC50 (TNFα): 83 nM

Structure (SMILES): CN1CCC[C@@H](Nc2cc(-c3ccc4cc(C#N)cnn34)ncc2C(=O)NC[C@@H](F)C(C)(C)O)C1 [Example 259, 6-(3-cyanopyrrolo[1,2-b]pyridazin-7-yl)-N-((R)-2-fluoro-3-hydroxy-3-methylbutyl)-4-(((R)-1-methylpiperidin-3-yl)amino)nicotinamide]
- IC50 (IRAK4 enzyme): 6 nM
- EC50 (TNFα): 152 nM

Structure (SMILES): CN1CCC[C@H](Nc2cc(-c3ccc4cc(C#N)cnn34)ncc2C(=O)NC[C@@H](F)C(C)(C)O)C1 [Example 260, 6-(3-cyanopyrrolo[1,2-b]pyridazin-7-yl)-N-((R)-2-fluoro-3-hydroxy-3-methylbutyl)-4-(((S)-1-methylpiperidin-3-yl)amino)nicotinamide]
- IC50 (IRAK4 enzyme): 8 nM
- EC50 (TNFα): 165 nM

Structure (SMILES): CC(C)(O)[C@H](F)CNC(=O)c1cnc(-c2ccc3cc(C#N)cnn23)cc1N[C@H]1CCC[C@H]1O [Example 261, 6-(3-cyanopyrrolo[1,2-b]pyridazin-7-yl)-N-((R)-2-fluoro-3-hydroxy-3-methylbutyl)-4-(((1S,2R)-2-hydroxycyclopentyl)amino)nicotinamide]
- IC50 (IRAK4 enzyme): < 1 nM
- EC50 (TNFα): 41 nM

Structure (SMILES): CC(C)(O)[C@H](F)CNC(=O)c1cnc(-c2ccc3cc(C#N)cnn23)cc1N[C@H]1CCC[C@@H]1O [Example 262, 6-(3-cyanopyrrolo[1,2-b]pyridazin-7-yl)-N-((R)-2-fluoro-3-hydroxy-3-methylbutyl)-4-(((1S,2S)-2-hydroxycyclopentyl)amino)nicotinamide]
- IC50 (IRAK4 enzyme): < 1 nM
- EC50 (TNFα): 21 nM

Structure (SMILES): CC(C)(O)[C@H](F)CNC(=O)c1cnc(-c2ccc3cc(C#N)cnn23)cc1N[C@@H]1CN2CCC1CC2 [Example 263, 6-(3-cyanopyrrolo[1,2-b]pyridazin-7-yl)-N-((R)-2-fluoro-3-hydroxy-3-methylbutyl)-4-(((S)-quinuclidin-3-yl)amino)nicotinamide]
- IC50 (IRAK4 enzyme): 3 nM
- EC50 (TNFα): 193 nM

Structure (SMILES): CC(C)(O)[C@H](F)CNC(=O)c1cnc(-c2ccc3cc(C#N)cnn23)cc1NC1CCC2(CCC(=O)N2)CC1 (stereo partly drawn) [Example 265, 6-(3-cyanopyrrolo[1,2-b]pyridazin-7-yl)-N-((R)-2-fluoro-3-hydroxy-3-methylbutyl)-4-(((5S,8s)-2-oxo-1-azaspiro[4.5]decan-8-yl)amino) nicotinamide]
- IC50 (IRAK4 enzyme): 2 nM
- EC50 (TNFα): 690 nM

Structure (SMILES): CC(C)(O)[C@H](F)CNC(=O)c1cnc(-c2ccc3cc(C#N)cnn23)cc1N[C@H]1CN2CCC1CC2 [Example 266, 6-(3-cyanopyrrolo[1,2-b]pyridazin-7-yl)-N-((R)-2-fluoro-3-hydroxy-3-methylbutyl)-4-(((R)-quinuclidin-3-yl)amino)nicotinamide]
- IC50 (IRAK4 enzyme): 131 nM
- EC50 (TNFα): 7590 nM

Structure (SMILES): COC(=O)NC12CCC(Nc3cc(-c4ccc5cc(C#N)cnn45)ncc3C(=O)NCC#N)(CC1)CC2 [Example 267, methyl (4-((5-((cyanomethyl)carbamoyl)-2-(3-cyanopyrrolo[1,2-b]pyridazin-7-yl)pyridin-4-yl)amino)bicyclo[2.2.2]octan-1-yl)carbamate]
- IC50 (IRAK4 enzyme): < 1 nM
- EC50 (TNFα): 19 nM

Structure (SMILES): COC(=O)N[C@H]1CC[C@H](Nc2cc(-c3ccc4cc(C#N)cnn34)ncc2C(=O)NCC#N)CC1 [Example 268, Methyl ((1R,4R)-4-((5-((cyanomethyl)carbamoyl)-2-(3-cyanopyrrolo[1,2-b]pyridazin-7-yl)pyridin-4-yl)amino)cyclohexyl)carbamate]
- IC50 (IRAK4 enzyme): < 1 nM
- EC50 (TNFα): 29 nM
